Measured values as given in US9616047B2, “Inhibitors of beta-catenin in treatment of colorectal cancer” (Regents of the University of Minnesota, priority 2014, dated 2017).
“Also recorded” adds a separate entry of the source.

Assays:
β-catenin/Tcf-4 complex = test: Immunoprecipitation assay of β-catenin/Tcf-4 complex in colon cancer cells; assay type: cell-based
Experimental: Colon cancer cells treated or not treated with low or high concentrations of compounds for 24 h were disrupted with lysis buffer (50 mmol/L Tris, pH 8, 250 mmol/L NaCl, 5 mmol/L EDTA, 0.1% NP-40, 10% glycerol, and 1× protease inhibitor cocktail). Cell lysates were cleared by centrifugation, and immunoprecipitations were performed by incubating overnight with anti-β-catenin. Agarose beads were then added and samples incubated for 3 h at 4° C. After removing unbound proteins by washing five times with lysis buffer, bound proteins were harvested by boiling in sample buffer, and resolved by 8% SDS-PAGE. β-Catenin and Tcf-4 proteins were visualized using a chemiluminescence reagent (Amersham).

Tcf-4/β-catenin complex [1] = test: Immunoprecipitation and Western blotting in 293T cells transfected with wildtype or mutant β-catenin; assay type: cell-based; conditions: 293T cells transfected with mutant β-catenin
Experimental: (§1) We used computational biology technology and medicinal chemistry to identify potential inhibitors of β-catenin. […] To further confirm binding, wildtype or mutant β-catenin was transfected into 293T cells and immunoprecipitation and Western blotting were performed. […] Overall, esculetin appears to be an effective, non-toxic inhibitor of the Tcf-4/β-catenin complex.

Tcf-4/β-catenin complex [2] = molecular target: T1, Tcf-4/β-catenin complex (Homo sapiens, UniProt P35222); test: as above; assay type: cell-based; conditions: 293T cells transfected with wildtype β-catenin
T1 construct: expressed in transfected cells; host or cells: 293T cells
T1 sequence (P35222 2-781): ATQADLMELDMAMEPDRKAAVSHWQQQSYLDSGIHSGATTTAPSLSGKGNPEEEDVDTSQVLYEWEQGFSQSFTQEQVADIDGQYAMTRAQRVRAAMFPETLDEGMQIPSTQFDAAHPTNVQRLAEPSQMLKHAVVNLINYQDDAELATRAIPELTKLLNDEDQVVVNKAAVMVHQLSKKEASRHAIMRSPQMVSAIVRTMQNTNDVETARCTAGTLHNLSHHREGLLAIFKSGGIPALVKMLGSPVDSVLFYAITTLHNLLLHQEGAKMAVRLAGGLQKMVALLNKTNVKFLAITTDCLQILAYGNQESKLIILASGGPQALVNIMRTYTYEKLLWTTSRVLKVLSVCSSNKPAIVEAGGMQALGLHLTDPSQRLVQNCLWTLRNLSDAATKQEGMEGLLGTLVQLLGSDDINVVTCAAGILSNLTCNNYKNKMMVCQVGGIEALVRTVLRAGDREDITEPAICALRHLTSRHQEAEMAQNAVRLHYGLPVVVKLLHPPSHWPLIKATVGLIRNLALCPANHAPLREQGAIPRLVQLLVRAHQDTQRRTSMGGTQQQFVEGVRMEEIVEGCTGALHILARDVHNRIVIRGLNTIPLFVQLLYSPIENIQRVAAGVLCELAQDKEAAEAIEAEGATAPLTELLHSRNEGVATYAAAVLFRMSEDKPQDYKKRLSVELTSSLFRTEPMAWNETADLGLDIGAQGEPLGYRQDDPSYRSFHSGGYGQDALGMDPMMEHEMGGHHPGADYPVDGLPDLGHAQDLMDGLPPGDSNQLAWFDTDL
Experimental: as §1

[3] = tested on: β-catenin/Tcf-4 luciferase activity; test: β-catenin/Tcf-4 luciferase reporter assay (TOP-flash/FOP-flash) in HCT116; assay type: cell-based; conditions: normalized to Renilla, 24 h treatment
Text: (§2) FIGS. 1A-C. HI-B1, HI-B5 and HI-B9 inhibit beta-catenin/Tcf-4 luciferase activity in colon cancer cell lines. (A) Chemical structures of three compounds. (B-C) Effects of HI-B1, HI-B5 and HI-B9 on the β-catenin/Tcf-4 luciferase activity in HCT116 (B) and HT29 (C) colon cancer cell lines. […] Colon cancer cells were co-transfected with reporter genes harboring the β-catenin/Tcf binding site (TOP-flash) or a mutant β-catenin/Tcf binding site (FOP-flash), respectively, and the Renilla gene. The luciferase activity was normalized to Renilla activity.
(§3) Transient transfection was performed using jetPEI and assays to detect firefly luciferase and Renilla activities according to the manufacturer's manual (Promega). Briefly, cells were seeded onto 10-cm plates and co-transfected with 400 ng of the Renilla luciferase internal control gene and 4 μg of the TOP-flash luciferase reporter construct containing three tandem Tcf consensus binding sites upstream of luciferase cDNA, or the FOPflash luciferase reporter construct, a plasmid with mutated Tcf binding sites. After 16 h of transfection, cells were trypsinized and seeded onto 48-well plates, and cells were treated with respective chemicals for 24 h. Luciferase and Renilla activities were measured using their substrates.

[4] = tested on: xenograft colon cancer tumor; test: Xenograft colon cancer tumor growth in nude mice; assay type: in vivo
β-catenin = test: Ex vivo pull-down with compound-conjugated Sepharose 4B beads and colon cancer cell lysate: β-catenin; assay type: binding; conditions: colon cancer cell lysates; compound-conjugated Sepharose 4B beads
Experimental: (§4) Protein extracts (500 μg) of colon cancer cells were mixed with Sepharose-4B beads (as a negative control) or chemical-conjugated Sepharose 4B beads (100 μl) in reaction buffer. After being washed five times with buffer, the proteins were visualized by Western blot analysis.

[5] = tested on: HCT116 colon cancer cells; test: Soft agar assay, anchorage-independent growth, HCT116; assay type: cell-based
Experimental: (§5) FIG. 2. […] HCT116 and HT-29 colon cancer cells. Colony formation of two cell lines were inhibited by treatment of β-catenin inhibitor candidates. Cells (8×10^3/ml) were incubated with or without HI-B5 or HI-B9 compounds in 1 mL of 0.33% BME agar containing 10% FBS or in 3.5 mL of 0.5% BME agar containing 10% FBS. The cultures were maintained at 37° C. in a 5% CO2 incubator for 7 days, after which the cell colonies were counted under a microscope.
(§6) Cells (8×10^3 per well) suspended in Basal Medium Eagle (BME) supplemented with 10% FBS were added to 0.3% agar with different doses of chemicals in a top layer over a basal layer of 0.6% agar. The cultures were maintained at 37° C. in a 5% CO2 incubator for 2 wk and then colonies were counted under a microscope using the Image-Pro Plus Software (v.4) program (Media Cybernetics).

[6] = tested on: β-catenin/Tcf-4 luciferase activity; test: β-catenin/Tcf-4 luciferase reporter assay (TOP-flash/FOP-flash) in HT29; assay type: cell-based; conditions: normalized to Renilla, 24 h treatment
Text: as §2, §3

HT-29 colon cancer cells = test: Soft agar assay, anchorage-independent growth, HT29; assay type: cell-based
Experimental: as §5, §6

[7] = tested on: target genes expressed by β-catenin/Tcf-4 complex; test: Quantitative real-time PCR of β-catenin/Tcf-4 target genes; assay type: cell-based; conditions: HI-B5 40 μM or HI-B9 20 μM; 12 hr of treatment
Experimental: FIGS. 3A-D. HI-B5 and HI-B9 reduce mRNA expression level of target genes expressed by β-catenin/Tcf-4 complex. (A) axin2, (B) cyclin D1, (C) c-myc and (D) pparδ mRNA expression was reduced by HI-B5 40 μM or HI-B9 20 μM treatment. Esculetin was used as a positive control. Expression level of each gene was detected after 12 hr of chemical treatment.
RNA isolation was performed according to the Trizol reagent protocol (catalog #15596-018, Invitrogen). The concentration and the purity of RNA was determined by measuring the absorbance at 260/280 nm. cDNA was synthesized using 1 μg of RNA and the amfiRevert Platinum cDNA synthesis master mix (GenDEPOT, Cat. No. R5600). For real time PCR, 1 μl of the synthesized cDNA was loaded into 1 well of a 96-well plate for detection of specific target genes using the Power SYBR Green PCR master mix (ABsystems, #4367659).

Tcf-4 = molecular target: T2, Tcf-4 (Homo sapiens, UniProt Q9NQB0); test: Ex vivo pull-down with compound-conjugated Sepharose 4B beads and colon cancer cell lysate: Tcf-4; assay type: binding; conditions: HCT116 and HT29 cell lysate
T2 construct: Protein extracts (500 μg) of colon cancer cells were mixed with Sepharose-4B beads; endogenous in cells; host or cells: HCT116 and HT29 cell lysate
Experimental: as §4

T2 sequence (Q9NQB0 whole entry): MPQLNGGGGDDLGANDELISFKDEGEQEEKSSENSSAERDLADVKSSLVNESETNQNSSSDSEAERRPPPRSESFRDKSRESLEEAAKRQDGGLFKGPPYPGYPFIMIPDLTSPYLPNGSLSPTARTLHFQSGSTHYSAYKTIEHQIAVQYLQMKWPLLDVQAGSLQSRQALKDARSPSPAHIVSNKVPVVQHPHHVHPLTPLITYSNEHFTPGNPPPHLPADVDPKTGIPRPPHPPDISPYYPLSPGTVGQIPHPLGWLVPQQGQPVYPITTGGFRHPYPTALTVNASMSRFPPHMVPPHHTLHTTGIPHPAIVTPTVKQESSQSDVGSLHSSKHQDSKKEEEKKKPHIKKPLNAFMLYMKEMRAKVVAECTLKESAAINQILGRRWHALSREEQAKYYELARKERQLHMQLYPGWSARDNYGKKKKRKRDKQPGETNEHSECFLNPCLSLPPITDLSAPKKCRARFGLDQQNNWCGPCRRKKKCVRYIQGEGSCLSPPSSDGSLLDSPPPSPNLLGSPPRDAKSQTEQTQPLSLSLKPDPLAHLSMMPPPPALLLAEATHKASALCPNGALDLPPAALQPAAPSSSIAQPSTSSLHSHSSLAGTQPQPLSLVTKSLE

Row | SMILES | disruption of nuclear Tcf-4/β-catenin complex (β-catenin/Tcf-4 complex; colon cancer cells) | effect on mutant Tcf-4/β-catenin complex (Tcf-4/β-catenin complex [1]) | disruption of wildtype Tcf-4/β-catenin complex (Tcf-4/β-catenin complex [2]) | transcriptional activity of β-catenin/Tcf-4 (luciferase activity) [3] | c-Myc and cyclin D1 expression in tumors ([4]; nude mice) | tumor size ([4]; nude mice) | xenograft colon cancer tumor growth ([4]; nude mice) | toxicity ([4]; overall statement) | binding to β-catenin (ex vivo pull-down) (β-catenin) | anchorage-independent growth (colony formation in soft agar) [5] | transcriptional activity of β-catenin/Tcf-4 (luciferase activity) [6] | anchorage-independent growth (colony formation in soft agar) (HT-29 colon cancer cells) | axin2 mRNA expression [7] | c-myc mRNA expression [7] | cyclin D1 mRNA expression [7] | pparδ mRNA expression [7] | Tcf-4 expression level after chemical treatment (β-catenin/Tcf-4 complex; HCT116) | disruption of β-catenin/Tcf-4 complex (immunoprecipitation) (β-catenin/Tcf-4 complex; HCT116 cell line, dose-dependent) | binding to Tcf-4 (ex vivo pull-down) (Tcf-4)
1 | O=c1ccc2cc(O)c(O)cc2o1 [esculetin] | disrupted the nuclear Tcf-4/β-catenin complex in a dose-dependent manner | had no effect | effectively disrupted | inhibited transcriptional activity of the β-catenin/Tcf complex | decreases | significantly smaller | effectively inhibited xenograft colon cancer tumor growth | non-toxic | verified the binding | – | – | – | – | – | – | – | – | – | –
2 | CC1(C)CCC(C)(C)c2cc(C(=O)CC3(O)C(=O)Nc4ccc(F)cc43)ccc21 (stereo not drawn) [HI-B9] | – | – | – | suppress transcriptional activity of the β-catenin/Tcf-4 in a dose-dependent manner | – | – | – | – | verified the binding | suppress anchorage-independent growth | suppress transcriptional activity of the β-catenin/Tcf-4 in a dose-dependent manner | suppress anchorage-independent growth | reduced | reduced | reduced | reduced | – | – | –
3 | CC1=C(/C=C/C(=O)/C=C2/C(=O)Nc3ccc(F)cc32)C(C)(C)CCC1 [HI-B5] | – | – | – | suppress transcriptional activity of the β-catenin/Tcf-4 in a dose-dependent manner | – | – | – | – | verified the binding; also recorded: can interact with β-catenin | suppress anchorage-independent growth | suppress transcriptional activity of the β-catenin/Tcf-4 in a dose-dependent manner | suppress anchorage-independent growth | reduced | reduced | reduced | reduced | not altered | caused disruption of β-catenin/Tcf-4 complex | not Tcf-4
